Source: patent publication US3948927A, “2,2-Dimethyl-3R-carboxy-6S-amino-1-oxa-4-aza-5R-bicyclo-[3,2,0]heptan-7-o ne” (Queen's University, priority 1974, dated 1976)
Converted amounts (≈) assume the structure as drawn.

Tests used:
Format in all cases: cell-based
S. lutea = experiment: antibacterial activity vs. S. lutea; details: level relative to phthalimidopenicillin
Experimental: The compound was dissolved in methylene chloride and the solution extracted with 5% sodium bicarbonate. The aqueous extract was re-acidified to pH 2.5 and re-extracted with methylene chloride.
The crystalline trans acid in methylene chloride, was shaken with 5% bicarbonate for 5 min. The aqueous phase was then separated, acidified to pH 4.5 - 5.0 and extracted with methylene chloride. It was then acidifid to pH 2.5 and extracted twice with methylene chloride and twice with chloroform.

S. aureus Smith = experiment: MIC, antibacterial activity; details: Staphylococcus aureus
Ser. marcescens = experiment: MIC, antibacterial activity; details: Serratia marcescens; at 10^-^4 dil'n
Ps. aeruginosa = experiment: MIC, antibacterial activity; details: Pseudomonas aeruginosa; at 10^-^4 dil'n
K. pneumoniae = experiment: MIC, antibacterial activity; details: Klebsiella pneumoniae; at 10^-^4 dil'n
S. aureus BX-1633-2 = experiment: MIC, antibacterial activity; details: Staphylococcus aureus
E. coli = experiment: MIC, antibacterial activity; details: Escherichia coli; at 10^-^4 dil'n
Sal. enteritidis = experiment: MIC, antibacterial activity; details: Salmonella enterica, at 10^-^4 dil'n
Str. pyogenes = experiment: MIC, antibacterial activity; details: Streptococcus pyogenes; + 5% serum; 45% AAB at 10^-^3 dil'n + 50% Medium Shown
Description: (§1) *45% AAB at 10^-^3 dil'n + 50% Medium Shown

D. pneumoniae = experiment: MIC, antibacterial activity; details: Streptococcus pneumoniae; + 5% serum; 45% AAB at 10^-^3 dil'n + 50% Medium Shown
Description: as §1

E. coli Juhl = experiment: MIC, antibacterial activity; details: Escherichia coli; at 10^-^4 dil'n
Pr. morganii = experiment: MIC, antibacterial activity; details: Morganella morganii; at 10^-^4 dil'n
S. aureus = experiment: MIC, antibacterial activity; details: Staphylococcus aureus
Pr. mirabilis = experiment: MIC, antibacterial activity; details: Proteus mirabilis; at 10^-^4 dil'n
S. aureus Meth. Resist. = experiment: MIC, antibacterial activity; details: Staphylococcus aureus
[1] = tested on: P. morganii and Ps. aeruginosa; experiment: MIC of ampicillin versus resistant or β-lactamase producing bacteria, alone and with substituted azetidine-2-one; details: read-out: Minimum Inhibitory Concentration of ampicillin
[2] = antibacterial activity (organism not stated); details: at levels of 250 mcg./ml.

CC1(C)O[C@@H]2[C@H](N3C(=O)c4ccccc4C3=O)C(=O)N2[C@H]1C(=O)O [6-phthalimido oxapenicillin]
antibacterial activity relative to phthalimidopenicillin (S. lutea): one-tenth the level of phthalimidopenicillin

CC1(C)S[C@@H]2[C@H](NC(=O)Cc3ccccc3)C(=O)N2[C@H]1C(=O)O [Penicillin G]
MIC (S. aureus Smith; at 10^-^4 dil'n): 0.016 µg/mL (≈ 0.0478 µM)
MIC (S. aureus Smith; at 10^-^4 dil'n + 5% serum): 0.06 µg/mL
MIC (Ser. marcescens): > 125 µg/mL
MIC (Ps. aeruginosa): > 125 µg/mL
MIC (K. pneumoniae): 2 µg/mL (≈ 5.98 µM)
MIC (S. aureus BX-1633-2; BX16332, at 10^-^2 dil'n): > 125 µg/mL
MIC (S. aureus BX-1633-2; BX16332, at 10^-^3 dil'n): 125 µg/mL (≈ 374 µM)
MIC (E. coli): 125 µg/mL (≈ 374 µM)
MIC (Sal. enteritidis): 0.13 µg/mL (≈ 0.389 µM)
MIC (Str. pyogenes): 0.004 µg/mL
MIC (D. pneumoniae): 0.004 µg/mL
MIC (E. coli Juhl): 32 µg/mL (≈ 95.7 µM)
MIC (Pr. morganii): > 125 µg/mL
MIC (S. aureus; at 10^-^2 dil'n): > 125 µg/mL
MIC (S. aureus; at 10^-^3 dil'n): 63 µg/mL (≈ 188 µM)
MIC (Pr. mirabilis): 1 µg/mL (≈ 2.99 µM)
MIC (S. aureus Meth. Resist.): 125 µg/mL (≈ 374 µM)

CC1(C)S[C@@H]2[C@H](NC(=O)[C@H](N)c3ccccc3)C(=O)N2[C@H]1C(=O)O [ampicillin]
MIC [1]: 500 to 1000 µg/mL

CC(C)=C(C(=O)O)N1C(=O)[C@H]2N=C(Cc3ccccc3)O[C@H]21 [oxazoline carboxylic acid, 2-benzyl-6-(1'-carboxy-2'-methylprop-1'-enyl)-1-oxa-3,6-diaza-4S,5R-bicyclo [3,2,0] hept-2-en-7-one]
activity as an antibacterial agent [2]: inactive
